Reference: patent US20120328605A1, “COMPOSITIONS AND USES” (priority 2010, published 2012)

Experiments:
Lineage-CD11b+ monocytes = test: Monocyte analysis and counting after adjuvant injection in mice; type: in vivo, C57BL/6 mice
Procedure: (§1) 24-Hours after injection of the TLR adjuvants, peripheral blood was drawn from C57BL/6 mice via cardiac puncture with lithium-heparin as anticoagulant. Red blood cell lysis was performed twice on pooled blood with Ammonium Chloride-based Buffer (Sigma, Steinheim, Germany) and cells were counted with the EasyCount™ System (Immunicon). […] Cells were finally washed three times and fixed for 15 min. with a 2% paraformaldehyde solution in PBS. Fluorescence minus one (FMO) controls were always included in the assays for fluorescent compensation setting. Samples were acquired on a flow cytometer (BD FACSCanto II) and data analyzed with the FACSDiva software (BD Biosciences). Monocytes were identified by their Side/Forward scatter properties and gated as CD3-/CD45R/B220-/Ly-6G-/NK1.1-(Lineage-)/CD11b+ cells. CD11b+ monocyte frequency was reported as a percentage of the total cells excluding debris.
as §1, with “24 hours” for “24-Hours”, “each immunomodulator,” for “the TLR adjuvants,”, “min” for “min.”, “monocytes” for “monocyte”

[1] = test system: CD11b+ peripheral blood monocytes; test: Ex vivo uptake assay of Aβ1-42 by peripheral blood monocytes; type: cell-based, C57BL/6 mice; details: AS01B mouse full dose (5 ug per mouse) or CRX601 2 μg i.m.; FIG. 14
Procedure: Preparation of cells: Peripheral blood was drawn from C57BL/6 mice via cardiac puncture with lithium-heparin as anticoagulant, 24-hours after injection of the adjuvants used herein. Red blood cell lysis was performed twice on pooled blood with Ammonium Chloride-based Buffer (Sigma, Steinheim, Germany) and cells were counted with the EasyCount™ System (Immunicon). […]
FACS analysis: cells were harvested after incubation with fluorescent Aβ peptide with Trypsin/EDTA and cold PBS and washed three times. 500,000 cells were incubated in 96-well plate for 10 min. on ice in the presence of Rat anti-Mouse CD16/CD32 (clone 2.4G2-BD Fc Block™) and further stained for 30 min. with a combination of the following directly conjugated antibodies at their pre-determined optimal concentration: PE-Hamster anti-Mouse CD3 (clone 145-2C11), Rat anti-Mouse CD45R/B220 (clone RA3-6B2), Rat anti-Mouse Ly-6G (clone 1A8), Mouse anti-Mouse NK1.1 (clone PK136), APC-conjugated Rat anti-Mouse CD11b (clone M1/70), PE-Cy7-conjugated Hamster anti-Mouse CD11c (clone HL3), (all from BD PharMingen). […]
Samples were acquired on a flow cytometer (BD FACSCanto II) and data analyzed with the FACSDiva software (BD Biosciences). […]

[2] = single i.m. injection, 24 hrs, FIG. 12

With `CCCCCCCCCCC[C@H](CC(=O)N[C@H]1[C@H](OC[C@H](NC(=O)C[C@@H](CCCCCCCCCCC)OCCCCCCCCCC)C(=O)O)O[C@H](CO)[C@@H](OP(=O)(O)O)[C@@H]1OC(=O)C[C@@H](CCCCCCCCCCC)OCCCCCCCCCC)OCCCCCCCCCC` [CRX601] the “circulating monocytes numbers following injection” value (Lineage-CD11b+ monocytes; i.m. or i.p. routes, doses of b403, FIG. 9) was “Upregulation of circulating monocytes numbers”, the “dose enough to trigger an increase of the monocyte count compared to PBS” value (Lineage-CD11b+ monocytes; [2]) was 1 µg and the “dose of maximum response (monocyte count)” value (Lineage-CD11b+ monocytes; [2]) was 10 µg. The “effect on monocyte count at 20 μg dose” value (Lineage-CD11b+ monocytes; single i.m. injection, FIG. 12) was “down modulated” and the “ex vivo uptake of Aβ42 by monocytes compared to PBS group” value [1] was “higher amount of Aβ42”.
